Key:
[1] = system: HPV+ HNSCC tumor; test: Intratumoral pH and tumor lactate; format: in vivo, wild-type mice
Experimental: FIG. 11 illustrates the effect of prodrug on tumor pH and tumor lactate. (A) Intratumoral pH in living animals was determined by inserting a needle pH electrode directly into the tumor. The pH was read at 3 different depths in each tumor. Each marker on the graph represents a separate pH measurement. The bar represents the mean and the error bars the standard deviation. (B) Frozen sections of excised tumors were used to estimate lactate levels in the tumor microenvironment. This was performed using the In Vivo Xtreme imager to visualize lactate-dependent luciferase activity as described by Broggini-Tenzer et al. [Metabolism of tumors under treatment: mapping of metabolites with quantitative bioluminescence. Radiother Oncol 99, 398-403 (2011)]. (C) Plot of lactate measurements in B. Each marker represents one tumor. The bar represents the mean and the error bars the standard deviation.
The ability of DCA and oxamate to enhance survival in wild-type mice following chemoradiation correlates closely with their ability to reduce tumor lactate. We therefore examined the ability of the prodrug AT-N4-002 to reduce tumor lactate. Wild-type tumor bearing mice were treated with either CRT or CRT followed by one week of daily ip injection of AT-N4-002. Lactate is exported from cells together with a proton and therefore promotes acidification of the tumor microenvironment. Intratumoral pH was measured with a needle pH electrode. […] (FIG. 11B,C).

[2] = system: HPV+ HNSCC tumor; test: IHC of tumors for cleaved caspase 3 and Ki67; format: in vivo, wild-type mice; details: one week treatment plus one round of CRT
Excerpt: FIG. 10 illustrates Effect of AT-N4-002 on tumor cell apoptosis and cell proliferation. (A) Sections of tumors from mice treated either with chemo-radiation (Tx) or chemoradiation plus AT-N4-002 were subjected to IHC to detect cleaved caspase 3 or Ki67. (B) Cleaved caspase 3 positive cells were counted in 5 random fields from the IHC experiment shown in A. (C) The percent of Ki67 positive cells from the IHC experiment shown in A.
To examine potential direct, immune-independent effects of the prodrug on tumors, tumor bearing wild-type mice were treated for one week with AT-N4-002 plus one round of chemoradiation. Tumors were then harvested and processed for immunohistochemical detection of Ki67, a proliferation marker, and cleaved caspase 3, a marker for apoptosis (FIG. 10). […] Such direct effects on the tumor cells could be responsible for the reduced tumor growth observed in immune deficient mice.

[3] = system: E6E7/Ras cells; test: Lactate secretion into culture medium, enzyme based assay; format: cell-based, mouse; details: 5 mM each, 4 hours
Experimental: FIG. 5 illustrates the reduction of lactate secretion in cultured cells by prodrugs AT-N4-001 and AT-N4-002. E6E7Ras cells were plated in 100 mm dishes and grown to confluence. The medium was changed to bicarbonate-free DMEM-10% FBS with or without the indicated treatments (5 mM each). Four hours later the medium was collected and lactate was measured using an enzyme based assay from Eton Bioscience. Con indicates the control samples for the DCA and Oxamate samples. DMSO indicates the vehicle only control for the AT-N4-001 and AT-N4-002 prodrug samples.
AT-N4-001 and AT-N4-002 should each release two molecules of DCA and one molecule of oxamate. Both DCA and oxamate are expected to reduce cellular lactate production. Therefore, we examined the changes in lactate after treatment of E6E7/Ras cells with the prodrugs. E6E7/Ras cells were seeded into 100 mm dishes and the next day treated with 5 mM AT-N4-001, 5 mM AT-N4-002, 5 mM DCA plus 5 mM oxamate, or 5 mM DCA alone. Culture medium was collected after 4 hours of treatment and lactate levels were determined (FIG. 5). […] To confirm the effects of these compounds on lactate production, the extra cellular acidification rate (ECAR) was measured using a Seahorse XF24 Extracellular Flux analyzer. Since lactate is transported from cells together with a proton, acidification of the culture medium (ECAR) is an estimate of lactate production and the glycolytic rate of cells. In the experiment shown in FIG. 6A, ECAR measurements were initiated in the absence of glucose. At point A, glucose was added and ECAR measurements continued. […] At point B, additional glucose along with vehicle (control), DCA plus oxamate, or AT-N4-002 was added. […] This is shown by a bar graph in FIG. 6B.

[4] = system: E6E7/Ras cells; test: Extracellular acidification rate (ECAR), Seahorse XF24; format: cell-based, mouse; details: added at point B with additional glucose
Experimental: FIG. 6 illustrates the reduction of extracellular acidification rate (ECAR) by prodrugs AT-N4-001 and AT-N4-002. (A) ECAR was measured using a Seahorse XF24 instrument. At time point A glucose was added to the cultures. At time point B the indicated drugs were added with additional glucose. At time point C 2-deoxyglucose was added to block glycolysis. (B) Bar graph of ECAR at the time point indicated as Rate 8 in A.
AT-N4-001 and AT-N4-002 should each release two molecules of DCA and one molecule of oxamate. Both DCA and oxamate are expected to reduce cellular lactate production. Therefore, we examined the changes in lactate after treatment of E6E7/Ras cells with the prodrugs. E6E7/Ras cells were seeded into 100 mm dishes and the next day treated with 5 mM AT-N4-001, 5 mM AT-N4-002, 5 mM DCA plus 5 mM oxamate, or 5 mM DCA alone. Culture medium was collected after 4 hours of treatment and lactate levels were determined (FIG. 5). […] To confirm the effects of these compounds on lactate production, the extra cellular acidification rate (ECAR) was measured using a Seahorse XF24 Extracellular Flux analyzer. Since lactate is transported from cells together with a proton, acidification of the culture medium (ECAR) is an estimate of lactate production and the glycolytic rate of cells. In the experiment shown in FIG. 6A, ECAR measurements were initiated in the absence of glucose. […]

[5] = system: HPV+ HNSCC tumor; test: Tumor growth and survival with chemoradiation in RAG-1 immune-deficient mice; format: in vivo, RAG-1 mice; details: in combination with chemoradiation
Experimental: FIG. 9 illustrates the effect of AT-N4-002 prodrug on tumor growth (A) and animal survival (B) in RAG-1 immune-deficient mice. Treatment conditions are the same as those described in FIG. 7.
To examine whether the prodrug AT-N4-002 also requires an immune response to control tumor growth, experiments were performed in RAG-1 mice. Based on our previous experience with DCA, we hypothesized that survival and tumor clearance would not be observed in these immune deficient mice following treatment with AT-N4-002. […] These immune-independent effects of AT-N4-002 on tumor growth in immune-deficient mice could be due to direct effects on tumor cell growth or cell death as described in Example 9, below.

[6] = CRT followed by one week of daily ip injection

| SMILES | intratumoral pH compared to CRT group (FIG. 11A) [1, 6] | tumor lactate (FIG. 11B,C) [1, 6] | lactate production and acidity in tumor tissues versus DCA plus oxamate ([1]; separate in vivo experiment, data not shown) | Ki67 positive cells in tumor (FIG. 10C) [2] | cleaved caspase 3 positive cells in tumor compared to CRT alone (FIG. 10B) [2] | lactate production (culture medium, FIG. 5) [3] | increase in ECAR after glucose addition (FIG. 6) [4] | survival in RAG-1 mice (FIG. 9B) [5] | tumor growth in RAG-1 mice (FIG. 9A) [5] |
| --- | --- | --- | --- | --- | --- | --- | --- | --- | --- |
| NC(=O)C(=O)OCC(COC(=O)C(Cl)Cl)OC(=O)C(Cl)Cl (stereo not shown) [AT-N4-002, 3-(2-amino-2-oxoacetoxy)propane-1,2-diyl bis(2,2-dichloroacetate)] | significantly higher | decreased tumor lactate | more effective in reducing lactate production and acidity in tumor tissues than DCA plus oxamate | appeared to decrease | significantly increased | significantly reduce lactate production | completely blocked | lengthened survival | slowed tumor growth |
| NC(=O)C(=O)OC(COC(=O)C(Cl)Cl)COC(=O)C(Cl)Cl [AT-N4-001, 2-(2-Amino-2-oxoacetoxy)propane-1,3-diyl bis(2,2-dichloroacetate)] | – | – | – | – | – | significantly reduce lactate production | – | – | – |

— patent US9556113B2, “Combination uses of dichloroacetate and oxamate, and their prodrugs, for cancer treatment” (The South Dakota Board of Regents, priority 2014, dated 2017)
